Experimental data published in patent US20200037600A1, “MESOIONIC IMIDAZOPYRIDINES AS INSECTICIDES” (Bayer Aktiengesellschaft, priority 2017, published 2020).
Like-named read-outs stand apart in the source and are kept apart here.

Experiments:
Ctenocephalides felis [1] = test: Ctenocephalides felis in vitro contact test with adult cat fleas; assay type: in vivo; settings: application rate 5 μg/cm^2 (=500 g/ha), after 48 h
Method: Ctenocephalides felis—In Vitro Contact Tests with Adult Cat Fleas
For the coating of the test tubes, 9 mg of active compound are first dissolved in 1 ml of acetone p.a. and then diluted to the desired concentration with acetone p.a. 250 μl of the solution are distributed homogeneously on the inner walls and the base of a 25 ml glass tube by turning and rocking on an orbital shaker (rocking rotation at 30 rpm for 2 h). With 900 ppm of active compound solution and internal surface area 44.7 cm^2, given homogeneous distribution, an area-based dose of 5 μg/cm^2 is achieved.
After the solvent has evaporated off, the tubes are populated with 5-10 adult cat fleas (Ctenocephalides felis), sealed with a perforated plastic lid and incubated in a horizontal position at room temperature and ambient humidity. After 48 h, efficacy is determined. To this end, the tubes are stood upright and the fleas are knocked to the base of the tube. Fleas which remain motionless at the base or move in an uncoordinated manner are considered to be dead or moribund.
100% efficacy means that all the fleas were dead or moribund. 0% efficacy means that no fleas were harmed.

Diabrotica balteata = Diabrotica balteata spray test; assay type: in vivo; settings: application rate 160 μg/well, beetle larvae on germinated wheat grains, after 7 days; for pest or weed control at 160 µg/disc, 160 µg/well: Diabrotica balteata, 168 h, read-out: efficacy
Method: Diabrotica balteata—Spray Test
(§1) Solvent: 78 parts by weight of acetone • • 1.5 parts by weight of dimethylformamide
(§2) Emulsifier: alkylaryl polyglycol ether
(§3) To produce a suitable active compound formulation, 1 part by weight of active compound is dissolved with the specified parts by weight of solvent and made up to the desired concentration with water containing an emulsifier concentration of 1000 ppm. To produce further test concentrations, the formulation is diluted with emulsifier-containing water.
Pre-swollen wheat grains (Triticum aestivum) are incubated in a multiwell plate filled with agar and a little water for one day (5 seed grains per well). The germinated wheat grains are sprayed with an active compound preparation of the desired concentration. Subsequently, each cavity is infected with 10-20 beetle larvae of Diabrotica balteata.
After 7 days, the efficacy in % is determined. 100% means that all maize plants have grown as in the untreated, uninfected control; 0% means that no maize plant has grown.

Myzus persicae [2] = test: Myzus persicae oral test; assay type: in vivo; settings: after 5 days
Method: Solvent: 100 parts by weight of acetone
To produce a suitable active compound formulation, 1 part by weight of active compound is dissolved with the stated parts by weight of solvent and made up to the desired concentration with water.
50 μl of the active compound formulation are transferred into microtitre plates and made up to a final volume of 200 μl with 150 μl of IPL41 insect medium (33%+15% sugar). Subsequently, the plates are sealed with parafilm, which a mixed population of green peach aphids (Myzus persicae) within a second microtitre plate is able to puncture and imbibe the solution.
(§4) After 5 days, the efficacy in % is determined. 100% means that all the aphids have been killed; 0% means that no aphids have been killed.

Myzus persicae [3] = test: Myzus persicae spray test; assay type: in vivo; settings: application rate 500 g/ha, Chinese cabbage leaf discs, after 5 days; for pest or weed control at 500 g/ha: Myzus persicae, foliar, 120 h, read-out: efficacy
Method: Myzus persicae—Spray Test
as §1, §2, §3
Discs of Chinese cabbage leaves (Brassica pekinensis) infested by all stages of the green peach aphid (Myzus persicae) are sprayed with an active compound formulation of the desired concentration.
as §4

[4] = log P by HPLC (EEC directive 79/831 Annex V.A8); assay type: physicochemical
Method: The log P values reported in the tables and preparation examples above were determined in accordance with EEC directive 79/831 Annex V.A8 by HPLC (High Performance Liquid Chromatography) using a reversed-phase column (C18). Temperature 43° C. The calibration is effected with unbranched alkan-2-ones (having 3 to 16 carbon atoms), for which the log P values are known.

Lucilia cuprina = Lucilia cuprina test; assay type: in vivo; settings: application rate 100 ppm; L1 larvae; after 2 days
Method: (§5) Solvent: dimethyl sulfoxide
(§6) To produce a suitable active compound formulation, 10 mg of active compound are mixed with 0.5 ml of dimethyl sulfoxide, and the concentrate is diluted with water to the desired concentration.
About 20 L1 larvae of the Australian sheep blowfly (Lucilia cuprina) are transferred into a test vessel containing minced horsemeat and the active compound formulation of the desired concentration.
After 2 days, the kill in % is determined. 100% means that all the larvae have been killed; 0% means that no larvae have been killed.

Phaedon cochleariae = Phaedon cochleariae spray test; assay type: in vivo; settings: foliar, 168 h, application rate 500 g/ha, larvae on Chinese cabbage leaf discs, after 7 days, read-out: efficacy
Method: Phaedon cochleariae—Spray Test
(§7) Solvent: 78.0 parts by weight of acetone • • 1.5 parts by weight of dimethylformamide
as §2, §3
Discs of Chinese cabbage leaves (Brassica pekinensis) are sprayed with an active compound formulation of the desired concentration and, after drying, populated with larvae of the mustard beetle (Phaedon cochleariae).
After 7 days, the efficacy in % is determined. 100% means that all the beetle larvae have been killed; 0% means that no beetle larvae have been killed.

Spodoptera frugiperda = Spodoptera frugiperda spray test; assay type: in vivo; settings: application rate 500 g/ha; caterpillars on maize leaf discs; after 7 days
Method: Spodoptera frugiperda—Spray Test
as §7, §2, §3
Leaf discs of maize (Zea mays) are sprayed with an active compound formulation of the desired concentration and, after drying, populated with caterpillars of the fall armyworm (Spodoptera frugiperda).
After 7 days, the efficacy in % is determined. 100% means that all the caterpillars have been killed; 0% means that no caterpillar has been killed.

Musca domestica = Musca domestica test; assay type: in vivo; settings: application rate 100 ppm; adult houseflies; after 2 days
Method: as §5, §6
Vessels containing a sponge treated with sugar solution and the active compound formulation of the desired concentration are populated with 10 adult houseflies (Musca domestica).
After 2 days, the kill in % is determined. 100% means that all of the flies have been killed; 0% means that none of the flies have been killed.

Ctenocephalides felis [5] = test: Ctenocephalides felis oral test; assay type: in vivo; settings: application rate 100 ppm in citrated cattle blood; adult cat fleas; after 2 days
Method: Ctenocephalides felis—Oral Test
as §5
To produce a suitable active compound formulation, 10 mg of active compound are mixed with 0.5 ml of dimethyl sulfoxide. Dilution with citrated cattle blood gives the desired concentration.
About 20 unfed adult cat fleas (Ctenocephalides felis) are placed into a chamber which is closed at the top and bottom with gauze. A metal cylinder whose bottom end is closed with parafilm is placed onto the chamber. The cylinder contains the blood/active compound formulation, which can be imbibed by the fleas through the parafilm membrane.
After 2 days, the kill in % is determined. 100% means that all of the fleas have been killed; 0% means that none of the fleas have been killed.

[6] = Myzus persicae, po, 120 h, application rate 4 ppm, read-out: efficacy

SMILES	pest or weed control at 160 µg/disc, 160 µg/well (Diabrotica balteata)	pest or weed control at 4 ppm (Myzus persicae [2]; [6])	pest or weed control at 500 g/ha (Myzus persicae [3])	efficacy (Myzus persicae [2]; application rate 4 ppm)	pest or weed control at 500 g/ha (Phaedon cochleariae)	efficacy (kill in %) (Musca domestica)	other results
O=Cc1c([O-])[n+]2ccccc2n1Cc1cnc(Cl)s1 [Example I-015, 1-[(2-Chlorothiazol-5-yl)methyl]-2-formylimidazo[1,2-a]pyridin-4-ium-3-olate]	100%	100%	90%	–	–	–	efficacy (Ctenocephalides felis [1]): 100%; chromatographic logP [4]: 1.01
O=C(c1cccs1)c1c([O-])[n+]2ccccc2n1Cc1cnc(Cl)s1 [Example I-026]	–	–	–	100%	–	–	efficacy (kill in %) (Lucilia cuprina): 100%; efficacy (Diabrotica balteata): 100%
Cc1ccc[n+]2c([O-])c(C(=O)C(F)(F)Cl)n(Cc3cnc(Cl)s3)c12 [Example I-060]	–	–	–	–	100%	–	efficacy (Spodoptera frugiperda): 100%
O=C(OC1CCC1)C(=O)c1c([O-])[n+]2ccccc2n1Cc1cnc(Cl)s1 [Example I-035]	–	–	–	100%	–	100%	efficacy (Myzus persicae [3]): 100%
O=C(OCC1CC1)C(=O)c1c([O-])[n+]2ccccc2n1Cc1cnc(Cl)s1 [Example I-034, 1-[(2-chlorothiazol-5-yl)methyl]-2-[2-(cyclopropylmethoxy)-2-oxoacetyl]imidazo[1,2-a]pyridin-4-ium-3-olate]	–	100%	90%	–	–	100%	chromatographic logP ([4]; HPLC, reversed-phase column (C18), 43° C, acidic (HCOOH), read-out: log P (HCOOH)): 1.94
CC(=O)c1c([O-])[n+]2cccc(C)c2n1Cc1cnc(Cl)s1 [Example I-044]	100%	100%	100%	–	83%	–	–
O=C(c1cccc(C(F)(F)F)c1)c1c([O-])[n+]2ccccc2n1Cc1cnc(Cl)s1 [Example I-023]	–	–	–	100%	–	–	efficacy (kill in %) (Lucilia cuprina): 95%; efficacy (Diabrotica balteata): 100%; efficacy (Myzus persicae [3]): 90%
CCNC(=O)c1c([O-])[n+]2ccccc2n1Cc1cnc(Cl)s1 [Example I-018]	–	–	–	100%	–	85%	efficacy (kill in %) (Lucilia cuprina): 100%; efficacy (Diabrotica balteata): 100%; efficacy (Myzus persicae [2]; application rate 20 ppm): 100%; efficacy (Myzus persicae [3]): 100%
Cc1ccc[n+]2c([O-])c(C(=O)C(F)(F)C(F)(F)F)n(Cc3cnc(Cl)s3)c12 [Example I-062]	–	100%	90%	–	100%	–	–
O=C(c1c([O-])[n+]2ccccc2n1Cc1cnc(Cl)s1)C(F)(F)F [Example I-007]	–	–	–	100%	–	90%	efficacy (Ctenocephalides felis [1]): 100%; efficacy (kill in %) (Ctenocephalides felis [5]): 95%; efficacy (kill in %) (Lucilia cuprina): 85%; efficacy (Diabrotica balteata): 100%; efficacy (Myzus persicae [2]; application rate 20 ppm): 100%; efficacy (Myzus persicae [3]): 100%
Cc1ccc[n+]2c([O-])c(C(=O)C(=O)OCC3CCC3)n(Cc3cnc(Cl)s3)c12 [Example I-046]	100%	100%	90%	–	100%	–	efficacy (Spodoptera frugiperda): 83%
O=C(c1ccccc1)c1c([O-])[n+]2ccccc2n1Cc1cnc(Cl)s1 [Example I-013]	–	–	–	100%	–	90%	efficacy (Ctenocephalides felis [1]): 100%; efficacy (Diabrotica balteata): 80%; efficacy (Myzus persicae [2]; application rate 20 ppm): 100%; efficacy (Myzus persicae [3]): 100%
Cc1ccc[n+]2c([O-])c(C(=O)C(=O)OC3CCC3)n(Cc3cnc(Cl)s3)c12 [Example I-065]	–	100%	90%	–	100%	–	–
Cc1ccc[n+]2c([O-])c(C(=O)C(F)(F)C(F)F)n(Cc3cnc(Cl)s3)c12 [Example I-063]	–	100%	–	–	100%	–	efficacy (Spodoptera frugiperda): 100%
O=C(c1c([O-])[n+]2ccccc2n1Cc1cnc(Cl)s1)C(Cl)(Cl)Cl [Example I-011, 1-[(2-Chlorothiazol-5-yl)methyl]-2-(2,2,2-trichloroacetyl)imidazo[1,2-a]pyridin-4-ium-3-olate]	100%	100%	90%	–	–	–	efficacy (Spodoptera frugiperda): 100%; chromatographic logP [4]: 2.44
CCOC(=O)C(=O)c1c([O-])[n+]2cccc(C)c2n1Cc1cnc(Cl)s1 [Example I-033]	100%	100%	90%	–	–	100%	efficacy (Ctenocephalides felis [1]): 100%; efficacy (kill in %) (Ctenocephalides felis [5]): 95%
CC(C)NC(=O)c1c([O-])[n+]2ccccc2n1Cc1cnc(Cl)s1 [Example I-025, 1-[(2-Chlorothiazol-5-yl)methyl]-2-(isopropylcarbamoyl)imidazo[1,2-a]pyridin-4-ium-3-olate]	–	100%	–	–	–	100%	chromatographic logP [4]: 1.66
Cc1ccc[n+]2c([O-])c(C(=O)C(F)F)n(Cc3cnc(Cl)s3)c12 [Example I-061]	–	100%	–	–	100%	–	efficacy (Spodoptera frugiperda): 100%
COC(=O)C(=O)c1c([O-])[n+]2cccc(C)c2n1Cc1cnc(Cl)s1 [Example I-045]	100%	100%	100%	–	100%	–	efficacy (kill in %) (Lucilia cuprina): 90%
COCC(=O)c1c([O-])[n+]2ccccc2n1Cc1cnc(Cl)s1 [Example I-010, 1-[(2-Chlorothiazol-5-yl)methyl]-2-(2-methoxyacetyl)imidazo[1,2-a]pyridin-4-ium-3-olate]	100%	100%	100%	–	–	–	pest or weed control at 20 ppm (Myzus persicae [2]; Myzus persicae, po, 120 h, application rate 20 ppm, read-out: efficacy): 100%; chromatographic logP [4]: 1.13
